Structure (SMILES)	melting point
CCNC(=O)Nc1cnc2ccc(-c3ccc(C(C)=O)s3)nc2n1 [Compound 183, 1-[6-(5-Acetyl-thiophen-2-yl)-pyrido[2,3-b]pyrazin-3-yl]-3-ethyl-urea]	> 250 °C
CCNC(=S)Nc1cnc2ccc(Nc3cccc(CC(=O)O)c3)nc2n1 [Compound 195, {3-[3-(3-Ethyl-thioureido)-pyrido[2,3-b]pyrazin-6-ylamino]-phenyl}-acetic acid]	248 °C
CCNC(=S)Nc1cnc2ccc(Nc3ccc(O)cc3)nc2n1 [Compound 198, 1-Ethyl-3-[6-(4-hydroxy-phenylamino)-pyrido[2,3-b]pyrazin-3-yl]-thiourea]	258 °C
CCNC(=S)Nc1cnc2ccc(Nc3cc(OC)c(OC)c(OC)c3)nc2n1 [Compound 200, 1-Ethyl-3-[6-(3,4,5-trimethoxy-phenylamino)-pyrido[2,3-b]pyrazin-3-yl]-thiourea]	238 °C
CCNC(=S)Nc1cnc2ccc(Nc3ccc(OC)c(Cl)c3)nc2n1 [Compound 202, 1-[6-(3-Chloro-4-methoxy-phenylamino)-pyrido[2,3-b]pyrazin-3-yl]-3-ethyl-thiourea]	225 °C
CCNC(=S)Nc1cnc2ccc(Nc3ccc(C)c(NS(C)(=O)=O)c3)nc2n1 [Compound 207, N-{5-[3-(3-Ethyl-thioureido)-pyrido[2,3-b]pyrazin-6-ylamino]-2-methyl-phenyl}-methanesulfonamide]	236 °C
CCNC(=S)Nc1cnc2ccc(Nc3ccc(O)c(Cl)c3)nc2n1 [Compound 208, 1-[6-(3-Chloro-4-hydroxy-phenylamino)-pyrido[2,3-b]pyrazin-3-yl]-3-ethyl-thiourea]	203 °C
CCNC(=S)Nc1cnc2ccc(Nc3ccc(Cl)cc3)nc2n1 [Compound 217, 1-[6-(4-Chloro-phenylamino)-pyrido[2,3-b]pyrazin-3-yl]-3-ethyl-thiourea]	185 °C
CCNC(=S)Nc1cnc2ccc(Nc3cccc(OC)c3)nc2n1 [Compound 221, 1-Ethyl-3-[6-(3-methoxy-phenylamino)-pyrido[2,3-b]pyrazin-3-yl]-thiourea]	189 °C
CCNC(=O)Nc1cnc2ccc(N3CCOCC3)nc2n1 [Compound 225, 1-Ethyl-3-(6-morpholin-4-yl-pyrido[2,3-b]pyrazin-3-yl)-urea]	243 to 245 °C
CCNC(=O)Nc1cnc2ccc(N3CCN(C)CC3)nc2n1 [Compound 227, 1-Ethyl-3-[6-(4-methyl-piperazin-1-yl)-pyrido[2,3-b]pyrazin-3-yl]-urea]	214 to 216 °C
CCNC(=O)Nc1cnc2ccc(NCC3CC3)nc2n1 [Compound 231, 1-[6-(Cyclopropylmethyl-amino)-pyrido[2,3-b]pyrazin-3-yl]-3-ethyl-urea]	201 to 203 °C
CCNC(=O)Nc1cnc2ccc(N3CCCN(C)CC3)nc2n1 [Compound 233, 1-Ethyl-3-[6-(4-methyl-[1,4]diazepan-1-yl)-pyrido[2,3-b]pyrazin-3-yl]-urea]	199 to 201 °C
CCNC(=O)Nc1cnc2ccc(N3CCC(O)CC3)nc2n1 [Compound 235, 1-Ethyl-3-[6-(4-hydroxy-piperidin-1-yl)-pyrido[2,3-b]pyrazin-3-yl]-urea]	249 to 251 °C
CCNC(=O)Nc1cnc2ccc(NCc3ccccc3)nc2n1 [Compound 239, 1-(6-Benzylamino-pyrido[2,3-b]pyrazin-3-yl)-3-ethyl-urea]	211 to 213 °C
CCNC(=S)Nc1cnc2ccc(Nc3ccc(C4(C#N)CCCC4)cc3)nc2n1 [Compound 257, 1-{6-[4-(1-Cyano-cyclopentyl)-phenylamino]-pyrido[2,3-b]pyrazin-3-yl}-3-ethyl-thiourea]	216 °C
CCNC(=S)Nc1ccc2ncc(Nc3cccc(Cl)c3)nc2n1 [Compound 329, 1-[3-(3-Chloro-phenylamino)-pyrido[2,3-b]pyrazin-6-yl]-3-ethyl-thiourea]	> 220 °C
CCNC(=S)Nc1ccc2ncc(Nc3ccc(F)c(F)c3)nc2n1 [Compound 433, 1-[3-(3,4-Difluoro-phenylamino)-pyrido[2,3-b]pyrazin-6-yl]-3-ethyl-thiourea]	265 °C
CCNC(=S)Nc1ccc2ncc(Nc3cc(Cl)cc(Cl)c3)nc2n1 [Compound 443, 1-[3-(3,5-Dichloro-phenylamino)-pyrido[2,3-b]pyrazin-6-yl]-3-ethyl-thiourea]	270 °C
CCNC(=S)Nc1ccc2ncc(Nc3ccc(C(C)=O)cc3)nc2n1 [Compound 467, 1-[3-(4-Acetyl-phenylamino)-pyrido[2,3-b]pyrazin-6-yl]-3-ethyl-thiourea]	232 °C
CCNC(=S)Nc1ccc2ncc(Nc3ccc(F)c([N+](=O)[O-])c3)nc2n1 [Compound 489, 1-Ethyl-3-[3-(4-fluoro-3-nitro-phenylamino)-pyrido[2,3-b]pyrazin-6-yl]-thiourea]	260 °C
CCCNC(=S)Nc1ccc2ncc(Nc3cc(OC)c(OC)c(OC)c3)nc2n1 [Compound 501, 1-Propyl-3-[3-(3,4,5-trimethoxy-phenylamino)-pyrido[2,3-b]pyrazin-6-yl]-thiourea]	243 °C

Other lines, results leading:

melting point	Structure (SMILES)
> 320 °C	CCNC(=O)Nc1cnc2ccc(-c3ccc(C)c(N)c3)nc2n1 [Compound 180, 1-[6-(3-Amino-4-methyl-phenyl)-pyrido[2,3-b]pyrazin-3-yl]-3-ethyl-urea]
277 to 279 °C	CCNC(=O)Nc1cnc2ccc(-c3ccc(O)cc3)nc2n1 [Compound 182, 1-Ethyl-3-[6-(4-hydroxy-phenyl)-pyrido[2,3-b]pyrazin-3-yl]-urea]
305 to 308 °C	CCNC(=O)Nc1cnc2ccc(Nc3cccc(CC(=O)O)c3)nc2n1 [Compound 194, {3-[3-(3-Ethyl-ureido)-pyrido[2,3-b]pyrazin-6-ylamino]-phenyl}-acetic acid]
211 °C	CCNC(=S)Nc1cnc2ccc(Nc3ccccc3O)nc2n1 [Compound 197, 1-Ethyl-3-[6-(2-hydroxy-phenylamino)-pyrido[2,3-b]pyrazin-3-yl]-thiourea]
260 °C	CCNC(=O)Nc1cnc2ccc(Nc3ccc(OC)c(Cl)c3)nc2n1 [Compound 201, 1-[6-(3-Chloro-4-methoxy-phenylamino)-pyrido[2,3-b]pyrazin-3-yl]-3-ethyl-urea]
166 °C	CCNC(=S)Nc1cnc2ccc(Nc3ccc(O)c(OC)c3)nc2n1 [Compound 203, 1-Ethyl-3-[6-(4-hydroxy-3-methoxy-phenylamino)-pyrido[2,3-b]pyrazin-3-yl]-thiourea]
166 °C	CCNC(=S)Nc1cnc2ccc(Nc3ccc(OC)c(O)c3)nc2n1 [Compound 205, 1-Ethyl-3-[6-(3-hydroxy-4-methoxy-phenylamino)-pyrido[2,3-b]pyrazin-3-yl]-thiourea]
255 °C	CCNC(=O)Nc1cnc2ccc(Nc3ccc(C)c(OC)c3)nc2n1 [Compound 209, 1-Ethyl-3-[6-(3-methoxy-4-methyl-phenylamino)-pyrido[2,3-b]pyrazin-3-yl]-urea]
148 °C	CCNC(=S)Nc1cnc2ccc(Nc3ccc(C)c(OC)c3)nc2n1 [Compound 210, 1-Ethyl-3-[6-(3-methoxy-4-methyl-phenylamino)-pyrido[2,3-b]pyrazin-3-yl]-thiourea]
258 °C	CCNC(=S)Nc1ccc2ncc(Nc3ccc(O)c(C)c3)nc2n1 [Compound 331, 1-Ethyl-3-[3-(4-hydroxy-3-methyl-phenylamino)-pyrido[2,3-b]pyrazin-6-yl]-thiourea]
232 °C	CCNC(=S)Nc1ccc2ncc(Nc3ccccc3OC)nc2n1 [Compound 332, 1-Ethyl-3-[3-(2-methoxy-phenylamino)-pyrido[2,3-b]pyrazin-6-yl]-thiourea]
255 °C	CCNC(=O)Nc1ccc2ncc(Nc3cc(C(C)(C)C)ccc3O)nc2n1 [Compound 336, 1-[3-(5-tert-Butyl-2-hydroxy-phenylamino)-pyrido[2,3-b]pyrazin-6-yl]-3-ethyl-urea]
215 °C	CCNC(=O)Nc1ccc2ncc(Nc3cccc(N(C)C)c3)nc2n1 [Compound 374, 1-[3-(3-Dimethylamino-phenylamino)-pyrido[2,3-b]pyrazin-6-yl]-3-ethyl-urea]
225 °C	CCNC(=O)Nc1ccc2ncc(Nc3cccc(C)c3C)nc2n1 [Compound 378, 1-[3-(2,3-Dimethyl-phenylamino)-pyrido[2,3-b]pyrazin-6-yl]-3-ethyl-urea]
272 °C	CCNC(=O)Nc1ccc2ncc(Nc3ccc(O)cc3C)nc2n1 [Compound 394, 1-Ethyl-3-[3-(4-hydroxy-2-methyl-phenylamino)-pyrido[2,3-b]pyrazin-6-yl]-urea]
210 °C	CCNC(=O)Nc1ccc2ncc(Nc3ccc(C)cc3C)nc2n1 [Compound 398, 1-[3-(2,4-Dimethyl-phenylamino)-pyrido[2,3-b]pyrazin-6-yl]-3-ethyl-urea]
215 °C	CCNC(=S)Nc1ccc2ncc(Nc3ccc(C)cc3C)nc2n1 [Compound 399, 1-[3-(2,4-Dimethyl-phenylamino)-pyrido[2,3-b]pyrazin-6-yl]-3-ethyl-thiourea]
324 to 329 °C	CCNC(=O)Nc1ccc2ncc(Nc3ccc(Cl)c(C(=O)O)c3)nc2n1 [Compound 434, 2-Chloro-5-[6-(3-ethyl-ureido)-pyrido[2,3-b]pyrazin-3-ylamino]-benzoic acid]
220 °C	CCNC(=S)Nc1ccc2ncc(Nc3ccc(O)c(Cl)c3)nc2n1 [Compound 441, 1-[3-(3-Chloro-4-hydroxy-phenylamino)-pyrido[2,3-b]pyrazin-6-yl]-3-ethyl-thiourea]
222 °C	CCNC(=O)Nc1ccc2ncc(Nc3cc(C)c(O)cc3C)nc2n1 [Compound 446, 1-Ethyl-3-[3-(4-hydroxy-2,5-dimethyl-phenylamino)-pyrido[2,3-b]pyrazin-6-yl]-urea]
277 °C	CCNC(=S)Nc1ccc2ncc(Nc3cc(Cl)c(Cl)c(Cl)c3)nc2n1 [Compound 465, 1-Ethyl-3-[3-(3,4,5-trichloro-phenylamino)-pyrido[2,3-b]pyrazin-6-yl]-thiourea]
250 °C	CCNC(=S)Nc1ccc2ncc(Nc3ccc(O)c([N+](=O)[O-])c3)nc2n1 [Compound 491, 1-Ethyl-3-[3-(4-hydroxy-3-nitro-phenylamino)-pyrido[2,3-b]pyrazin-6-yl]-thiourea]

Source: US8536332B2, “Modulating signal transduction pathways with substituted pyridol [2,3-b] pyrazines” (Aeterna Zentaris GmbH, priority 2007, dated 2013)
